The source of these data is ChEMBL document CHEMBL4840367, “2-Phenylcyclopropylmethylamine Derivatives as Dopamine D2 Receptor Partial Agonists: Design, Synthesis, and Biological Evaluation” (J Med Chem, 2021).

One data set deals with D(1A) dopamine receptor (Homo sapiens, UniProt P21728).
The target of data set [1] is T1, D(2) dopamine receptor (Homo sapiens, UniProt P14416). The data set is classed as cell membranes, HEK293T, Membrane.
For data set [2], the target named is T1, D(2) dopamine receptor.
In data set [3] the target is T1, D(2) dopamine receptor. The source holds these as a separate data set.
Data set [4] concerns the target 5-hydroxytryptamine receptor 2A (Homo sapiens, UniProt P28223). The data set is classed as cell membranes, HEK293T, Membrane.
Data set [5] deals with T2, 5-hydroxytryptamine receptor 2C (Homo sapiens, UniProt P28335).
T2 sequence (P28335 whole entry): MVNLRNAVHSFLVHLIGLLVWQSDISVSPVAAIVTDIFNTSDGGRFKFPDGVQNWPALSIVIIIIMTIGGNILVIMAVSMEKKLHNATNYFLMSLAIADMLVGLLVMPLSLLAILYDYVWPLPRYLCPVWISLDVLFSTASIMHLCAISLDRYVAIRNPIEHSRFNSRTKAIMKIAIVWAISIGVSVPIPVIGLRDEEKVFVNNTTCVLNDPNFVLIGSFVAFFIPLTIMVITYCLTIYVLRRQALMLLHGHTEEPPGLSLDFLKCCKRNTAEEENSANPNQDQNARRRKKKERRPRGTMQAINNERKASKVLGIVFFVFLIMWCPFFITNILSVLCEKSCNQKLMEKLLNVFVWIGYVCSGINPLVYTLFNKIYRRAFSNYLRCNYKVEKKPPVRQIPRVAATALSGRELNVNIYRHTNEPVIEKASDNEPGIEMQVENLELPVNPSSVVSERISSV

The target in a further data set is T3, D(4) dopamine receptor (Homo sapiens, UniProt P21917).
T3 sequence (P21917 whole entry): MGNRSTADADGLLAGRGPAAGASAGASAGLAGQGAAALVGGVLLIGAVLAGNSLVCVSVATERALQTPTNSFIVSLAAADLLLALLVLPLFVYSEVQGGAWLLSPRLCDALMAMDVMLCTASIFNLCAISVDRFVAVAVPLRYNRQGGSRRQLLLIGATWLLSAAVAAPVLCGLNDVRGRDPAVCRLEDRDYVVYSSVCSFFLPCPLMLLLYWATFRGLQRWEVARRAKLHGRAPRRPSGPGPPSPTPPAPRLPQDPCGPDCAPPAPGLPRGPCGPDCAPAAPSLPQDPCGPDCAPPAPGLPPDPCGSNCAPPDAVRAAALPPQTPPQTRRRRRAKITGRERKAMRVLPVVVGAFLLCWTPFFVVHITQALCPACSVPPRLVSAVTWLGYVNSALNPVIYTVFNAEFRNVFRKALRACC

Data set [6] in a line: in vitro. As to conditions: human, liver microsomes.
Description: Metabolic stability in human liver microsomes assessed as half life preincubated for 5 mins followed by NADPH addition measured after 10 mins by LC-MS analysis
A short description of data set [7]: in vitro. As to conditions: mouse, liver microsomes.
Description: Metabolic stability in mouse liver microsomes assessed as half life preincubated for 5 mins followed by NADPH addition measured after 10 mins by LC-MS analysis

“And” between values parts separate entries of the source, which are not always exact repeats. Identical values can stand only once.

T1 sequence (P14416 whole entry): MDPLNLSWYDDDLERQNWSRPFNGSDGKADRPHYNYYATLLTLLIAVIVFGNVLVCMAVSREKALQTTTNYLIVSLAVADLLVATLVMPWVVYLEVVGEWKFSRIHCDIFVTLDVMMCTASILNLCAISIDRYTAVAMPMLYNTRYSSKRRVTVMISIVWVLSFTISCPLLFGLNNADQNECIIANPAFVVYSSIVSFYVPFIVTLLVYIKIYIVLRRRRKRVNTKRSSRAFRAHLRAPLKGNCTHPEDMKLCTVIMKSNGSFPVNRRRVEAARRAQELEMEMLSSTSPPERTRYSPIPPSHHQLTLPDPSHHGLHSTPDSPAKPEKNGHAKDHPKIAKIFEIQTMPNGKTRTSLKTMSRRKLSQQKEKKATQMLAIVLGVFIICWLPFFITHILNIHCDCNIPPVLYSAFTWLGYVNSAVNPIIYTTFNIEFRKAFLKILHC
Sequence of 5-hydroxytryptamine receptor 2A (P28223 whole entry): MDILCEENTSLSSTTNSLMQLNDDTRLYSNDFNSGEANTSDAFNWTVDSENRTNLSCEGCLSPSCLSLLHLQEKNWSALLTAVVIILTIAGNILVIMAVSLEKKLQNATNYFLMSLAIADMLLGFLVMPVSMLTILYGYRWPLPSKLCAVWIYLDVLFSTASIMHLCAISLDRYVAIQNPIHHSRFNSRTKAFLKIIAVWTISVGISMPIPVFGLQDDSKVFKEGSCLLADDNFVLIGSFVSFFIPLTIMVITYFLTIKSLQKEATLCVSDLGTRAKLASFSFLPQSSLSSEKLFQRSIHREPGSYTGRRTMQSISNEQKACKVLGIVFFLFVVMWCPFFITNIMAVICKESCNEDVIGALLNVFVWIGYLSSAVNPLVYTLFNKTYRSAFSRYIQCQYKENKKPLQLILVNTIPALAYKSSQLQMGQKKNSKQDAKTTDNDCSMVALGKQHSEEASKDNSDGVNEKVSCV
Sequence of D(1A) dopamine receptor (P21728 whole entry): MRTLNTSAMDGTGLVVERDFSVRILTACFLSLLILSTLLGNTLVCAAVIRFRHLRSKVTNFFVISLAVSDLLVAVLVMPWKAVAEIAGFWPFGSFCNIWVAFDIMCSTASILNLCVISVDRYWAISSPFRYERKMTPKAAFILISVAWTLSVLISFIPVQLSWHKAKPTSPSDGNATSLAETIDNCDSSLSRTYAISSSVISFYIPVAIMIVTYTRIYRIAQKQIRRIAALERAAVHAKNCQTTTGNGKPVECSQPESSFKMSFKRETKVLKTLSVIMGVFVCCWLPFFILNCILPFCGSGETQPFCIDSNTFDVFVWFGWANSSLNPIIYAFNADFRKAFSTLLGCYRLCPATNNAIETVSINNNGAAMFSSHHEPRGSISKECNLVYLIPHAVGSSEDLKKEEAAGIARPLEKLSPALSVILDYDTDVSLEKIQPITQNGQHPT

Consider `CN1CCc2ccccc2Cc2[nH]c3ccccc3c2CC1`, for which the affinity at D(1A) dopamine receptor, expressed as Ki, was 2.93 nM.

The compound `COc1ccccc1C1CC1CNCC[C@H]1CC[C@H](NC(=O)N(C)C)CC1` (stereo not given in full) registered a Ki on D(2) dopamine receptor [1] of 1820 nM.

As for `COc1ccccc1C1CC1CNCCCOc1ccc2ccc(=O)[nH]c2c1` (stereo not given), the EC50 at D(2) dopamine receptor [2] was determined as 7.08 nM; at D(2) dopamine receptor [3] it was 11.2 nM. Besides, the affinity on D(2) dopamine receptor [1], expressed as Ki, was 156 nM.

`CN(C)C(=O)N[C@H]1CC[C@H](CCNCC2CC2c2cccc(Cl)c2Cl)CC1` (stereo not given in full) had a Ki at D(2) dopamine receptor [1] of 1330 nM.

As for `O=C1CCc2ccc(OCCCCNCC3CC3c3cccc4c3OCCO4)cc2N1` (stereo not given), the EC50 on D(2) dopamine receptor [2] is 61.7 nM; on D(2) dopamine receptor [3] it was 95.5 nM. This compound also returned a Ki on D(2) dopamine receptor [1] of 384 nM.

Turning to `COc1ccccc1C1CC1CNC/C=C/COc1ccc2c(c1)NC(=O)CC2` (stereo not given), the EC50 on D(2) dopamine receptor [2] was 61.3 nM and 60.3 nM; on D(2) dopamine receptor [3], 22.9 nM. Also, on D(2) dopamine receptor [1], the Ki amounted to 454 nM.

With `COc1ccccc1C1CC1CNCCCCCOc1ccc2c(c1)NC(=O)CC2` (stereo not given), the EC50 came out at 417 nM at D(2) dopamine receptor [2] and 891 nM at D(2) dopamine receptor [3]. At D(2) dopamine receptor [1], this compound gave an inhibition constant Ki of 259 nM.

`O=c1ccc2ccc(OCCCCNCC3CC3c3cccc4c3OCCO4)cc2[nH]1` (stereo not given): the EC50 at D(2) dopamine receptor [2] is 23.4 nM; at D(2) dopamine receptor [3], 26.3 nM. At D(2) dopamine receptor [1], the affinity corresponds to a Ki of 178 nM.

Take `CSc1ccccc1C1CC1CNCCCCOc1ccc2c(c1)NC(=O)CC2` (stereo not given): the results for the EC50 on D(2) dopamine receptor [2] and at D(2) dopamine receptor [3] were 35.7 nM and 18.9 nM, respectively. This compound registered a Ki on D(2) dopamine receptor [1] of 366 nM.

For `COc1ccc(Cl)cc1[C@H]1C[C@@H]1CNCCCCOc1ccc2c(c1)NC(=O)CC2`, the inhibition constant (Ki) in data set [4] is 2090 nM; in [5], 373 nM; at D(1A) dopamine receptor, more than 10000 nM; at D(4) dopamine receptor, 373 nM.

For `COc1ccc(F)cc1[C@H]1C[C@@H]1CNCCCCOc1ccc2ccc(=O)[nH]c2c1`, the Ki in [4] was 1410 nM; in data set [5], 122 nM; on D(1A) dopamine receptor it was more than 10000 nM; at D(4) dopamine receptor, 122 nM.

Take `COc1ccc(F)cc1[C@H]1C[C@@H]1CNCCCOc1ccc2ccc(=O)[nH]c2c1`: the Ki in data set [4] was 520 nM; in data set [5], 305 nM; on D(1A) dopamine receptor, more than 10000 nM; at D(4) dopamine receptor, 305 nM.

For `COc1ccccc1C1CC1CNCCCOc1ccc2c(c1)NC(=O)CC2` (stereo not given), the EC50 on D(2) dopamine receptor [2] came to 10 nM; on D(2) dopamine receptor [3] it was 9.3 nM. In addition, the Ki at D(2) dopamine receptor [1] came out at 126 nM.

As for `COc1ccc(F)cc1C1CC1CNCCCOc1ccc2c(c1)NC(=O)CC2` (stereo not given), the figures for the concentration for a half-maximal effect (EC50) on D(2) dopamine receptor [2] and on D(2) dopamine receptor [3] were 14.9 nM and 3.47 nM, respectively. Moreover, the Ki at D(2) dopamine receptor [1] was found to be 27.4 nM.

For the compound `CN(CCCCOc1ccc2c(c1)NC(=O)CC2)CC1CC1c1cccc(Cl)c1Cl` (stereo not given), on D(2) dopamine receptor [1], the Ki worked out at 322 nM.

For `CN(C)C(=O)N[C@H]1CC[C@H](CCNCC2CC2c2cccc3c2OCCO3)CC1` (stereo not given in full), at D(2) dopamine receptor [1], affinity was put at a Ki of 2310 nM.

For `COc1ccccc1C1CC1CNCCCCOc1ccc2ccc(=O)[nH]c2c1` (stereo not given), the values for the 50% effective concentration (EC50) at D(2) dopamine receptor [2] and on D(2) dopamine receptor [3] were 32.4 nM and 26.3 nM, respectively. Further, the inhibitory constant (Ki) on D(2) dopamine receptor [1] is 59.9 nM.

As to `COc1ccccc1C1CC1CNCC[C@H]1CC[C@H](NC(=O)N2CCCC2)CC1` (stereo not given in full), the Ki at D(2) dopamine receptor [1] was determined as 2190 nM.

`COc1ccc(Cl)cc1[C@H]1C[C@@H]1CNCCCOc1ccc2ccc(=O)[nH]c2c1`: the Ki is 1160 nM in [4], 604 nM in data set [5], more than 10000 nM at D(1A) dopamine receptor and 604 nM at D(4) dopamine receptor.

Regarding `COc1ccccc1C1CC1CNCC[C@H]1CC[C@H](NC(=O)c2ccccc2)CC1` (stereo not given in full), at D(2) dopamine receptor [1], the Ki stood at 1040 nM.

In the case of `CSc1ccccc1C1CC1CNCCCCOc1ccc2ccc(=O)[nH]c2c1` (stereo not given), the figures for the EC50 on D(2) dopamine receptor [2] and on D(2) dopamine receptor [3] were 7.43 nM and 2.88 nM, respectively. At D(2) dopamine receptor [1], this compound displayed a Ki of 95.2 nM.

Turning to `O=c1ccc2ccc(OCCCCN3CCN(c4cccc5sccc45)CC3)cc2[nH]1` [BREXPIPRAZOLE], the figures for the half-life at 10 min in “in vitro [6]” and in the data set “in vitro [7]” were 27.2 min and 17.2 min, respectively. For the same compound, the EC50 on D(2) dopamine receptor [2] stood at 16.1 nM; on D(2) dopamine receptor [3], 10.2 nM. Also, the Ki at D(2) dopamine receptor [1] was found to be 0.51 nM.

Turning to `CN(C)C(=O)N[C@H]1CC[C@H](CCN2CCN(c3cccc(Cl)c3Cl)CC2)CC1` [CARIPRAZINE], the figures for the half-life at 10 min in “in vitro [6]” and in “in vitro [7]” were 32.7 min and 22.3 min, respectively.

What is called Ki is a measure of affinity in units of concentration, obtained from inhibition or displacement. A low value points to tighter binding. Broadly, the EC50 is the concentration needed to bring the measured effect to its halfway point. A low value points to higher potency in that assay. One may read the half-life as the time in which the quantity being followed falls by half.
